ChEMBL document CHEMBL1128987, “Benzenesulfonamide-peptide conjugates as probes for secondary binding sites near the active site of carbonic anhydrase” (Bioorg Med Chem Lett, 1996)

Molecular target: Carbonic anhydrase 2 (Homo sapiens, UniProt P00918)
Assay: Dissociation constant against human carbonic anhydrase II at 37 degree Centigrade

Kd | SMILES
0.23 µM | CC[C@H](C)[C@H](NC(=O)CNC(=O)CNC(=O)CNC(=O)c1ccc(S(N)(=O)=O)cc1)C(=O)O
0.13 µM | NS(=O)(=O)c1ccc(C(=O)NCC(=O)NC(Cc2ccc(F)cc2)C(=O)O)cc1 (stereo not drawn)
0.009 µM | CC(C)CC(NC(=O)c1ccc(S(N)(=O)=O)cc1)C(=O)O (stereo not drawn)
0.3 µM | N=C(N)NCCC[C@H](NC(=O)CNC(=O)CNC(=O)c1ccc(S(N)(=O)=O)cc1)C(=O)O
0.29 µM | NC(=O)C[C@H](NC(=O)CNC(=O)CNC(=O)CNC(=O)c1ccc(S(N)(=O)=O)cc1)C(=O)O
0.017 µM | NS(=O)(=O)c1ccc(C(=O)NC(Cc2ccc(F)cc2)C(=O)O)cc1 (stereo not drawn)
0.21 µM | CC(C)C[C@H](NC(=O)CNC(=O)CNC(=O)CNC(=O)c1ccc(S(N)(=O)=O)cc1)C(=O)O
0.28 µM | NC(=O)CC[C@H](NC(=O)CNC(=O)CNC(=O)CNC(=O)c1ccc(S(N)(=O)=O)cc1)C(=O)O
0.027 µM | COc1ccc(CC(NC(=O)c2ccc(S(N)(=O)=O)cc2)C(=O)O)cc1 (stereo not drawn)
0.022 µM | NS(=O)(=O)c1ccc(C(=O)NC(Cc2ccc([N+](=O)[O-])cc2)C(=O)O)cc1 (stereo not drawn)
0.27 µM | NC(=O)C[C@H](NC(=O)CNC(=O)CNC(=O)c1ccc(S(N)(=O)=O)cc1)C(=O)O
0.1 µM | NS(=O)(=O)c1ccc(C(=O)NCC(=O)NC(Cc2ccc(Cl)cc2)C(=O)O)cc1 (stereo not drawn)
0.14 µM | NS(=O)(=O)c1ccc(C(=O)NCC(=O)NCC(=O)N[C@@H](Cc2ccccc2)C(=O)O)cc1
0.053 µM | CC(O)C(NC(=O)c1ccc(S(N)(=O)=O)cc1)C(=O)O (stereo not drawn)
0.12 µM | NS(=O)(=O)c1ccc(C(=O)NCC(=O)NCC(=O)N[C@@H](Cc2ccc(F)cc2)C(=O)O)cc1
0.15 µM | NS(=O)(=O)c1ccc(C(=O)NCC(=O)NC(Cc2ccc([N+](=O)[O-])cc2)C(=O)O)cc1 (stereo not drawn)
0.16 µM | CSCCC(NC(=O)CNC(=O)c1ccc(S(N)(=O)=O)cc1)C(=O)O (stereo not drawn)
0.17 µM | COc1ccc(C[C@H](NC(=O)CNC(=O)CNC(=O)c2ccc(S(N)(=O)=O)cc2)C(=O)O)cc1
0.23 µM | NS(=O)(=O)c1ccc(C(=O)NCC(=O)NCC(=O)NCC(=O)O)cc1
0.25 µM | C[C@H](NC(=O)CNC(=O)CNC(=O)c1ccc(S(N)(=O)=O)cc1)C(=O)O
0.42 µM | NS(=O)(=O)c1ccc(C(=O)NCC(=O)NC(CC(=O)O)C(=O)O)cc1 (stereo not drawn)

Kd | SMILES
0.12 µM | CC(NC(=O)c1ccc(S(N)(=O)=O)cc1)C(=O)O (stereo not drawn)
0.4 µM | NS(=O)(=O)c1ccc(C(=O)NCC(=O)NCC(=O)N[C@@H](CC(=O)O)C(=O)O)cc1
0.24 µM | NC(=O)CCC(NC(=O)CNC(=O)c1ccc(S(N)(=O)=O)cc1)C(=O)O (stereo not drawn)
0.29 µM | NC(=O)CC(NC(=O)CNC(=O)c1ccc(S(N)(=O)=O)cc1)C(=O)O (stereo not drawn)
0.29 µM | N=C(N)NCCC[C@H](NC(=O)CNC(=O)CNC(=O)CNC(=O)c1ccc(S(N)(=O)=O)cc1)C(=O)O
0.23 µM | NS(=O)(=O)c1ccc(C(=O)N2CCCC2C(=O)O)cc1 (stereo not drawn)
0.371 µM | NS(=O)(=O)c1ccc(C(=O)NCC(=O)NCC(=O)NCC(=O)N[C@@H](CCC(=O)O)C(=O)O)cc1
0.29 µM | NS(=O)(=O)c1ccc(C(=O)NCC(=O)NCC(=O)O)cc1
0.21 µM | CC(C)C[C@H](NC(=O)CNC(=O)CNC(=O)c1ccc(S(N)(=O)=O)cc1)C(=O)O
0.22 µM | N=C(N)NCCCC(NC(=O)c1ccc(S(N)(=O)=O)cc1)C(=O)O (stereo not drawn)
0.16 µM | CCC(C)C(NC(=O)CNC(=O)c1ccc(S(N)(=O)=O)cc1)C(=O)O (stereo not drawn)
0.24 µM | CC(C)(C)[C@H](NC(=O)CNC(=O)CNC(=O)c1ccc(S(N)(=O)=O)cc1)C(=O)O
0.01 µM | CSCCC(NC(=O)c1ccc(S(N)(=O)=O)cc1)C(=O)O (stereo not drawn)
0.26 µM | CC(C)[C@H](NC(=O)CNC(=O)CNC(=O)c1ccc(S(N)(=O)=O)cc1)C(=O)O
0.3 µM | NS(=O)(=O)c1ccc(C(=O)NCC(=O)NCC(=O)NCC(=O)N[C@@H](CC(=O)O)C(=O)O)cc1
0.5 µM | NS(=O)(=O)c1ccc(C(=O)NCC(=O)NC(CCC(=O)O)C(=O)O)cc1 (stereo not drawn)
0.064 µM | Nc1ccc(CC(NC(=O)c2ccc(S(N)(=O)=O)cc2)C(=O)O)cc1 (stereo not drawn)
0.14 µM | NS(=O)(=O)c1ccc(C(=O)NCC(=O)NC(Cc2ccccc2)C(=O)O)cc1 (stereo not drawn)
0.36 µM | NS(=O)(=O)c1ccc(C(=O)NCC(=O)NCC(=O)NCC(=O)N[C@@H](CO)C(=O)O)cc1
0.009 µM | CC(C)(C)C(NC(=O)c1ccc(S(N)(=O)=O)cc1)C(=O)O (stereo not drawn)
0.16 µM | NS(=O)(=O)c1ccc(C(=O)NCC(=O)NCC(=O)NCC(=O)N[C@@H](Cc2ccc3ccccc3c2)C(=O)O)cc1

Kd | SMILES
0.372 µM | NS(=O)(=O)c1ccc(C(=O)NCC(=O)NCC(=O)N[C@@H](CCC(=O)O)C(=O)O)cc1
0.19 µM | N=C(N)NCCCC(NC(=O)CNC(=O)c1ccc(S(N)(=O)=O)cc1)C(=O)O (stereo not drawn)
0.013 µM | NS(=O)(=O)c1ccc(C(=O)NC(Cc2ccccc2)C(=O)O)cc1 (stereo not drawn)
0.17 µM | C[C@H](NC(=O)CNC(=O)c1ccc(S(N)(=O)=O)cc1)C(=O)O
0.21 µM | CC(C)(C)[C@H](NC(=O)CNC(=O)CNC(=O)CNC(=O)c1ccc(S(N)(=O)=O)cc1)C(=O)O
0.16 µM | NS(=O)(=O)c1ccc(C(=O)NCC(=O)NCC(=O)NCC(=O)N[C@@H](Cc2ccc([N+](=O)[O-])cc2)C(=O)O)cc1
0.32 µM | CC(O)C(NC(=O)CNC(=O)c1ccc(S(N)(=O)=O)cc1)C(=O)O (stereo not drawn)
0.33 µM | C[C@@H](O)[C@H](NC(=O)CNC(=O)CNC(=O)CNC(=O)c1ccc(S(N)(=O)=O)cc1)C(=O)O
0.24 µM | NS(=O)(=O)c1ccc(C(=O)NC(CO)C(=O)O)cc1 (stereo not drawn)
0.3 µM | C[C@H](NC(=O)CNC(=O)CNC(=O)CNC(=O)c1ccc(S(N)(=O)=O)cc1)C(=O)O
0.19 µM | Nc1ccc(C[C@H](NC(=O)CNC(=O)CNC(=O)CNC(=O)c2ccc(S(N)(=O)=O)cc2)C(=O)O)cc1
0.14 µM | CCCC[C@H](NC(=O)CNC(=O)CNC(=O)c1ccc(S(N)(=O)=O)cc1)C(=O)O
0.33 µM | C[C@@H](O)[C@H](NC(=O)CNC(=O)CNC(=O)c1ccc(S(N)(=O)=O)cc1)C(=O)O
0.13 µM | NS(=O)(=O)c1ccc(C(=O)NCC(=O)NCC(=O)N[C@@H](Cc2ccc([N+](=O)[O-])cc2)C(=O)O)cc1
0.53 µM | NS(=O)(=O)c1ccc(C(=O)NC(CCC(=O)O)C(=O)O)cc1 (stereo not drawn)
0.29 µM | CC(C)[C@H](NC(=O)CNC(=O)CNC(=O)CNC(=O)c1ccc(S(N)(=O)=O)cc1)C(=O)O
0.14 µM | NS(=O)(=O)c1ccc(C(=O)NCC(=O)NCC(=O)NCC(=O)N[C@@H](Cc2ccc(F)cc2)C(=O)O)cc1
0.38 µM | NC(=O)CC(NC(=O)c1ccc(S(N)(=O)=O)cc1)C(=O)O (stereo not drawn)
0.2 µM | NS(=O)(=O)c1ccc(C(=O)NCC(=O)NCC(=O)NCC(=O)N[C@@H](Cc2ccccc2)C(=O)O)cc1
0.15 µM | CC(C)(C)C(NC(=O)CNC(=O)c1ccc(S(N)(=O)=O)cc1)C(=O)O (stereo not drawn)
0.33 µM | Nc1ccc(CC(NC(=O)CNC(=O)c2ccc(S(N)(=O)=O)cc2)C(=O)O)cc1 (stereo not drawn)

SMILES | Kd
NS(=O)(=O)c1ccc(C(=O)NCC(=O)NCC(=O)NCC(=O)N2CCC[C@H]2C(=O)O)cc1 | 0.33 µM
NS(=O)(=O)c1ccc(C(=O)NCC(=O)N2CCCC2C(=O)O)cc1 (stereo not drawn) | 0.25 µM
NS(=O)(=O)c1ccc(C(=O)NC(Cc2ccc3ccccc3c2)C(=O)O)cc1 (stereo not drawn) | 0.017 µM
NS(=O)(=O)c1ccc(C(=O)NCC(=O)NC(Cc2ccc3ccccc3c2)C(=O)O)cc1 (stereo not drawn) | 0.13 µM
NS(=O)(=O)c1ccc(C(=O)NCC(=O)NCC(=O)NC(Cc2ccc3ccccc3c2)C(=O)O)cc1 (stereo not drawn) | 0.16 µM
